In US8329645B2, “Polymyxin derivatives and uses thereof” (priority 2008, dated 2012):
Like-named read-outs stand apart in the source and are kept apart here.

How the values were obtained:
[1] = rat, Li et al. (2003), identical dosing and administration procedure, cited from earlier work
[2] = tested on: E. coli IH3080; experiment: E-test MIC with or without NAB7061 (4 μg/ml), Mueller-Hinton agar; type: cell-based, Escherichia coli
Protocol: (§1) MICs were determined by using E-strips (Biodisk Ltd., Solna, Sweden) according to the manufacturer's instructions.
(§2) The strains originated from ATCC (11 strains), CCUG (11 strains), and NCTC (The National Collection of Type Cultures, Colindale, U.K.; 2 strains). Eight strains (the F-strains) were purchased from Mobidiag Ltd., Helsinki, Finland.

[3] = tested on: E. cloacae ATCC23355; experiment: as above; type: cell-based, Enterobacter cloacae
Protocol: as §1, §2

[4] = tested on: K. pneumoniae ATCC13883; conditions: K. pneumoniae ATCC13883
Protocol: as §1, §2

[5] = tested on: E. coli ATCC25922; conditions: E. coli ATCC25922
Protocol: as §1, §2

[6] = tested on: E. coli IH3080; experiment: Growth inhibition around wells on LB agar plates; type: cell-based, Escherichia coli
Protocol: Peptides synthesized in Example 1, all carrying at least two (2) but not more than three (3) positive charges, were studied for their ability to inhibit the growth of E. coli. This was tested employing LB agar (LB Agar Lennox, Difco, BD, Sparks, Md., U.S.A) plates. The indicator organism E. coli IH3080 (K1:O018) was an encapsulated strain originally isolated from a neonate suffering from meningitis (Vaara et al. 1984) and obtained from National Public Health Institute, Helsinki, Finland.
(§3) From an overnight-grown culture of IH3080 on LB agar, a suspension of approx. 10^8 cells/ml was prepared in 0.9% NaCl. Aliquots of this suspension were then pipetted on the agar plates and the plates were gently shaken to spread the suspension evenly on the entire surface of the plate. Thereafter, the unabsorbed part of the suspension was removed by using a Pasteur pipette. After the surface had dried, small wells (diameter, 2 mm) were drilled on the plates (five wells per plate) by using a sterile sharp-edged narrow metal tube, single-use pipette tip, and vacuum suction. An alternative method used a swab to spread the inoculum. […] Controls included 0.9% NaCl solution without the compound to be tested. The plates were then incubated for 18 h at 37° C. whereafter the diameters of growth inhibition zones around each well were measured; the diameter of the well itself was not reduced. Finally, the diameters were converted to surface areas of growth inhibition (in square mm).

[7] = tested on: A. baumannii ATCC 19606; experiment: Sensitization to rifampin: growth inhibition around wells on LB plates containing rifampin; type: cell-based, Acinetobacter baumannii; conditions: 4 μg
[8] = tested on: Acinetobacter baumannii ATCC 19606; experiment: Growth inhibition around wells on LB agar plates; type: cell-based; conditions: A. baumannii ATCC 19606
Protocol: as §3
(§4) Direct antibacterial activity of sixteen NAB compounds against Acinetobacter baumannii ATCC 19606 and Pseudomonas aeruginosa ATCC 27853 was tested by using the susceptibility determination method described in Example 2. Five compounds (NAB7062, NAB734, NAB737, NAB739, and NAB740) had very notable activity against A. baumannii. […] The antibacterial activity of NAB739 and NAB740 were as strong as or even stronger than that of polymyxin B.

[9] = tested on: E. coli IH3080; experiment: Sensitization to rifampin: growth inhibition around wells on LB plates containing rifampin; type: cell-based, Escherichia coli; conditions: 4 μg of compound
Protocol: (§5) From an overnight-grown culture of IH3080 on LB agar, a suspension of approx. 10^8 cells/ml was prepared in 0.9% NaCl. Aliquots of this suspension were then pipetted on the agar plates and the plates were gently shaken to spread the suspension evenly on the entire surface of the plate. Thereafter, the unabsorbed part of the suspension was removed by using a Pasteur pipette. After the surface had dried, small wells (diameter, 2 mm) were drilled on the plates (five wells per plate) by using a sterile sharp-edged narrow metal tube, single-use pipette tip, and vacuum suction. An alternative method used a swab to spread the inoculum. Samples (4 μl and 10 μl) of the peptide solution in 0.9% NaCl (at concentrations of 1 μg/ml and 0.1 μg/ml) were then pipetted to the wells and the sample fluids were allowed to absorb. Controls included 0.9% NaCl solution without the compound to be tested. The plates were then incubated for 18 h at 37° C. whereafter the diameters of growth inhibition zones around each well were measured; the diameter of the well itself was not reduced. Finally, the diameters were converted to surface areas of growth inhibition (in square mm).

[10] = tested on: Pseudomonas aeruginosa ATCC 27853; experiment: Growth inhibition around wells on LB agar plates; type: cell-based; conditions: Ps. aeruginosa ATCC 27853
Protocol: as §5, §4

[11] = tested on: Ps. aeruginosa ATCC 27853; experiment: Sensitization to rifampin: growth inhibition around wells on LB plates containing rifampin; type: cell-based, Pseudomonas aeruginosa; conditions: 4 μg

| Compound | Sensitization factor to antibiotic (MIC without / with 4 μg/ml of NAB 7061) [3] | growth inhibition around a well ([6]; 4 μg of compound per well) [square millimeters] | growth inhibition around a well ([6]; 10 μg of compound per well) [square millimeters] | growth inhibition around a well in the presence of rifampin ([7]; rifampin 0 μg/ml) [square millimeters] | growth inhibition around a well in the presence of rifampin ([7]; rifampin 0.1 μg/ml) [square millimeters] | growth inhibition around a well in the presence of rifampin ([7]; rifampin 0.3 μg/ml) [square millimeters] | growth inhibition around a well ([8]; 4 μg) [square millimeters] | growth inhibition around a well ([8]; 10 μg) [square millimeters] | growth inhibition around a well in the presence of rifampin ([9]; rifampin 0 μg/ml) [square millimeters] | growth inhibition around a well in the presence of rifampin ([9]; rifampin 0.1 μg/ml) [square millimeters] | growth inhibition around a well in the presence of rifampin ([9]; rifampin 1.0 μg/ml) [square millimeters] | growth inhibition around a well ([10]; 4 μg) [square millimeters] | growth inhibition around a well ([10]; 10 μg) [square millimeters] | growth inhibition around a well in the presence of rifampin ([11]; rifampin 0 μg/ml) [square millimeters] | growth inhibition around a well in the presence of rifampin ([11]; rifampin 0.1 μg/ml) [square millimeters] | growth inhibition around a well in the presence of rifampin ([11]; rifampin 0.3 μg/ml) [square millimeters] | further results |
| --- | --- | --- | --- | --- | --- | --- | --- | --- | --- | --- | --- | --- | --- | --- | --- | --- | --- |
| Colistin (polymyxin E) |  |  |  |  |  |  |  |  |  |  |  |  |  |  |  |  | clearance [1]: 5.2 ± 0.4 mL/min/kg; half-life [1]: 1.24 ± 0.22 h; renal clearance [1]: 0.010 ± 0.008 mL/min/kg; urinary recovery [1]: 0.18±0.14 % of dose in 24 h; volume of distribution [1]: 0.496 ± 0.06 L/kg; urinary recovery ([1]; listed as polymyxin E (colistin)): about 0.18±0.14 % of dose in 24 h |
| CC(=O)NC[C@H]1CN(c2ccc(N3CCOCC3)c(F)c2)C(=O)O1 [Linezolid] | >8 |  |  |  |  |  |  |  |  |  |  |  |  |  |  |  | Sensitization factor to antibiotic (MIC without / with 4 μg/ml of NAB 7061) [2]: >8; Sensitization factor to antibiotic (MIC without / with 4 μg/ml of NAB 7061) [4]: >4; Sensitization factor to antibiotic (MIC without / with 4 μg/ml of NAB 7061) [5]: >11 |
| COc1c(N2C[C@@H]3CCCN[C@@H]3C2)c(F)cc2c(=O)c(C(=O)O)cn(C3CC3)c12 [Moxifloxacin] | 4 |  |  |  |  |  |  |  |  |  |  |  |  |  |  |  |  |
| OA-Thr-Ser-cy[Dab-Dab-DPhe-Leu-Dab-Dab-Thr-] [NAB 743] |  | 38 | 79 | 0 | 38 | 227 | 0 | 0 | 38 | 133 | 227 | 28 | 38 | 28 | 28 | 28 |  |
| DA-cy[Dab-Dab-DPhe-Leu-Dab-Dab-Thr-] [NAB 736] |  | 0 | 0 | 0 | 95 | 154 | 0 | 0 | 0 | 113 | 133 | 38 | 79 | 38 | 38 | 38 |  |
